Columns and labels:
[1] = human
[2] = human; remark: listed apart in the source
[3] = human; remark: listed apart in the source
[4] = human; remark: listed apart in the source
[5] = Times to onset, minimal and maximal, observed in the indexed observations. [column 'DELAI' in source]; conditions: human
[6] = human; remark: listed apart in the source
[7] = human, serum
[8] = Highest frequency of acute liver toxicity observed during clinical trials, expressed as a percentage. [column '% AIGUE' in source]; conditions: human
[9] = human, serum, 4383 h
[10] = human, serum; remark: listed apart in the source
[11] = Highest frequency of moderate liver toxicity observed during clinical trials, expressed as a percentage. [column '% BIOL' in source]; conditions: human
[12] = Presence of at least one case with successful reintroduction. [column 'REINT' in source]; conditions: human
[13] = human; remark: listed apart in the source
[14] = human; remark: listed apart in the source
[15] = human; remark: listed apart in the source
[16] = human; remark: listed apart in the source
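Throughout, for Hepatotoxicity (association with vascular disease): count of indexed literature references reporting vascular liver injury in humans, e.g. peliosis hepatitis, hepatic veno-occlusive disease or Budd-Chiari syndrome.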
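Throughout, for Hepatotoxicity (benign tumour): value is a count of indexed literature references citing a benign tumour confirmed by histopathology.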
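Throughout, for Hepatotoxicity (choleostasis): human cholestatic liver injury, shown by histopathology or by peak ALT or AST elevation over alkaline phosphatase ratio below 2, value counts indexed literature reports.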
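Throughout, for Hepatotoxicity (chronic liver disease): chronic liver injury confirmed by histopathology or persistently raised serum aminotransferase activity beyond 6 months, value given as the count of indexed literature references.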
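Throughout, for Hepatotoxicity (cirrhosis): value is a count of indexed literature references reporting cirrhosis confirmed by histopathology.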
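Throughout, for Hepatotoxicity (cytolytic): human cytolytic liver injury, shown by histopathology or by a ratio above 5 of peak ALT or AST elevation to alkaline phosphatase elevation, value counts indexed references.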
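Throughout, for Hepatotoxicity (granulomatous hepatitis): value is a count of indexed literature references reporting granulomatous liver disease confirmed by histopathology.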
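Throughout, for Hepatotoxicity (malignant tumour): malignant tumour confirmed by histopathology, value gives the count of indexed literature references reporting it.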
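Throughout, for Hepatotoxicity (severe hepatitis): human clinical data: severe hepatitis, meaning potentially life-threatening liver failure or clinically observed cases, the value counts how many indexed literature references report it.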
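Throughout, for Hepatotoxicity (steatosis): steatosis confirmed by histopathology, value is the count of indexed references.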

## O=c1cc[nH]c(=S)[nH]1 [THIOURACIL]
[1]
  Hepatotoxicity (malignant tumour): 0
[2]
  Hepatotoxicity (severe hepatitis): 1
[3]
  Hepatotoxicity (choleostasis): 1
[4]
  Hepatotoxicity (cytolytic): 1
[5]
  Hepatotoxicity (time to onset): 1 day - 3 weeks
[6]
  Hepatotoxicity (granulomatous hepatitis): 0
[7]
  Hepatotoxicity (moderate): 0
[8]
  Hepatotoxicity (acute): 5.9%
[9]
  Hepatotoxicity (chronic liver disease): 0
[10]
  Hepatotoxicity (acute): 5
[11]
  Hepatotoxicity (moderate): 0%
[12]
  Hepatotoxicity (successful reintroduction): yes
[13]
  Hepatotoxicity (association with vascular disease): 0
[14]
  Hepatotoxicity (cirrhosis): 0
[15]
  Hepatotoxicity (steatosis): 0
[16]
  Hepatotoxicity (benign tumour): 0

## CCc1oc2ccccc2c1C(=O)c1cc(Br)c(O)c(Br)c1 [BENZBROMARONE]
[1]
  Hepatotoxicity (malignant tumour): 0
[2]
  Hepatotoxicity (severe hepatitis): 4
[3]
  Hepatotoxicity (choleostasis): 0
[4]
  Hepatotoxicity (cytolytic): 5
[5]
  Hepatotoxicity (time to onset): 1.5 months - 5 months
[6]
  Hepatotoxicity (granulomatous hepatitis): 0
[7]
  Hepatotoxicity (moderate): 1
[8]
  Hepatotoxicity (acute): 0%
[9]
  Hepatotoxicity (chronic liver disease): 0
[10]
  Hepatotoxicity (acute): 5
[11]
  Hepatotoxicity (moderate): 0%
[12]
  Hepatotoxicity (successful reintroduction): yes
[13]
  Hepatotoxicity (association with vascular disease): 0
[14]
  Hepatotoxicity (cirrhosis): 0
[15]
  Hepatotoxicity (steatosis): 0
[16]
  Hepatotoxicity (benign tumour): 0

## FILGRASTIM
[1]
  Hepatotoxicity (malignant tumour): 0
[2]
  Hepatotoxicity (severe hepatitis): 0
[3]
  Hepatotoxicity (choleostasis): 1
[4]
  Hepatotoxicity (cytolytic): 2
[5]
  Hepatotoxicity (time to onset): 3 days - 8 days
[6]
  Hepatotoxicity (granulomatous hepatitis): 0
[7]
  Hepatotoxicity (moderate): 7
[8]
  Hepatotoxicity (acute): 0%
[9]
  Hepatotoxicity (chronic liver disease): 0
[10]
  Hepatotoxicity (acute): 2
[11]
  Hepatotoxicity (moderate): 75%
[12]
  Hepatotoxicity (successful reintroduction): yes
[13]
  Hepatotoxicity (association with vascular disease): 0
[14]
  Hepatotoxicity (cirrhosis): 0
[15]
  Hepatotoxicity (steatosis): 0
[16]
  Hepatotoxicity (benign tumour): 0

## COc1cc(C(=O)NS(=O)(=O)c2ccccc2C)ccc1Cc1cn(C)c2ccc(NC(=O)OC3CCCC3)cc12 [ZAFIRLUKAST]
[1]
  Hepatotoxicity (malignant tumour): 0
[2]
  Hepatotoxicity (severe hepatitis): 3
[3]
  Hepatotoxicity (choleostasis): 0
[4]
  Hepatotoxicity (cytolytic): 8
[5]
  Hepatotoxicity (time to onset): 2 months - 1 year
[6]
  Hepatotoxicity (granulomatous hepatitis): 0
[7]
  Hepatotoxicity (moderate): 4
[8]
  Hepatotoxicity (acute): 0.5%
[9]
  Hepatotoxicity (chronic liver disease): 0
[10]
  Hepatotoxicity (acute): 8
[11]
  Hepatotoxicity (moderate): 4.1%
[12]
  Hepatotoxicity (successful reintroduction): yes
[13]
  Hepatotoxicity (association with vascular disease): 0
[14]
  Hepatotoxicity (cirrhosis): 0
[15]
  Hepatotoxicity (steatosis): 0
[16]
  Hepatotoxicity (benign tumour): 0

## O=c1[nH]c(=O)n(C2CCCO2)cc1F (stereo unspecified) [TEGAFUR]
[1]
  Hepatotoxicity (malignant tumour): 0
[2]
  Hepatotoxicity (severe hepatitis): 3
[3]
  Hepatotoxicity (choleostasis): 0
[4]
  Hepatotoxicity (cytolytic): 1
[5]
  Hepatotoxicity (time to onset): 1.5 months - 9 months
[6]
  Hepatotoxicity (granulomatous hepatitis): 0
[7]
  Hepatotoxicity (moderate): 2
[8]
  Hepatotoxicity (acute): 0%
[9]
  Hepatotoxicity (chronic liver disease): 2
[10]
  Hepatotoxicity (acute): 3
[11]
  Hepatotoxicity (moderate): 17.5%
[12]
  Hepatotoxicity (successful reintroduction): yes
[13]
  Hepatotoxicity (association with vascular disease): 0
[14]
  Hepatotoxicity (cirrhosis): 1
[15]
  Hepatotoxicity (steatosis): 0
[16]
  Hepatotoxicity (benign tumour): 0

## CCCCC(CC)COC(=O)CC(C(=O)OCC(CC)CCCC)S(=O)(=O)O (stereo unspecified) [DOCUSATE]
[1]
  Hepatotoxicity (malignant tumour): 0
[2]
  Hepatotoxicity (severe hepatitis): 0
[3]
  Hepatotoxicity (choleostasis): 0
[4]
  Hepatotoxicity (cytolytic): 0
[5]
  Hepatotoxicity (time to onset): 2 days - 1 year
[6]
  Hepatotoxicity (granulomatous hepatitis): 0
[7]
  Hepatotoxicity (moderate): 1
[8]
  Hepatotoxicity (acute): 0%
[9]
  Hepatotoxicity (chronic liver disease): 1
[10]
  Hepatotoxicity (acute): 0
[11]
  Hepatotoxicity (moderate): 0%
[12]
  Hepatotoxicity (successful reintroduction): yes
[13]
  Hepatotoxicity (association with vascular disease): 0
[14]
  Hepatotoxicity (cirrhosis): 0
[15]
  Hepatotoxicity (steatosis): 0
[16]
  Hepatotoxicity (benign tumour): 0

## CCC1(c2ccc(N)cc2)CCC(=O)NC1=O (stereo unspecified) [AMINOGLUTETHIMIDE]
[1]
  Hepatotoxicity (malignant tumour): 0
[2]
  Hepatotoxicity (severe hepatitis): 0
[3]
  Hepatotoxicity (choleostasis): 3
[4]
  Hepatotoxicity (cytolytic): 2
[5]
  Hepatotoxicity (time to onset): 1 day - 10 weeks
[6]
  Hepatotoxicity (granulomatous hepatitis): 0
[7]
  Hepatotoxicity (moderate): 4
[8]
  Hepatotoxicity (acute): 0%
[9]
  Hepatotoxicity (chronic liver disease): 0
[10]
  Hepatotoxicity (acute): 4
[11]
  Hepatotoxicity (moderate): 67%
[12]
  Hepatotoxicity (successful reintroduction): yes
[13]
  Hepatotoxicity (association with vascular disease): 0
[14]
  Hepatotoxicity (cirrhosis): 0
[15]
  Hepatotoxicity (steatosis): 0
[16]
  Hepatotoxicity (benign tumour): 0

## Cc1ncsc1CCCl [CLOMETHIAZOLE]
[1]
  Hepatotoxicity (malignant tumour): 0
[2]
  Hepatotoxicity (severe hepatitis): 2
[3]
  Hepatotoxicity (choleostasis): 1
[4]
  Hepatotoxicity (cytolytic): 3
[5]
  Hepatotoxicity (time to onset): 3 days - 40 days
[6]
  Hepatotoxicity (granulomatous hepatitis): 0
[7]
  Hepatotoxicity (moderate): 1
[8]
  Hepatotoxicity (acute): 0%
[9]
  Hepatotoxicity (chronic liver disease): 0
[10]
  Hepatotoxicity (acute): 3
[11]
  Hepatotoxicity (moderate): 0%
[12]
  Hepatotoxicity (successful reintroduction): yes
[13]
  Hepatotoxicity (association with vascular disease): 0
[14]
  Hepatotoxicity (cirrhosis): 0
[15]
  Hepatotoxicity (steatosis): 0
[16]
  Hepatotoxicity (benign tumour): 0

## C1CNCCN1 [PIPERAZINE]
[1]
  Hepatotoxicity (malignant tumour): 0
[2]; Liver
  Hepatotoxicity (severe hepatitis): 0
[3]; Liver
  Hepatotoxicity (choleostasis): 2
[4]; Liver
  Hepatotoxicity (cytolytic): 1
[5]
  Hepatotoxicity (time to onset): 3 weeks - 1 month
[6]; Liver
  Hepatotoxicity (granulomatous hepatitis): 0
[7]
  Hepatotoxicity (moderate): 0
[8]; Liver
  Hepatotoxicity (acute): 0%
[9]
  Hepatotoxicity (chronic liver disease): 0
[10]
  Hepatotoxicity (acute): 2
[11]; Liver
  Hepatotoxicity (moderate): 0%
[12]
  Hepatotoxicity (successful reintroduction): yes
[13]
  Hepatotoxicity (association with vascular disease): 0
[14]
  Hepatotoxicity (cirrhosis): 0
[15]
  Hepatotoxicity (steatosis): 0
[16]
  Hepatotoxicity (benign tumour): 0

## O=C(O)CCC(=O)c1ccc(-c2ccccc2)cc1 [FENBUFEN]
[1]
  Hepatotoxicity (malignant tumour): 0
[2]
  Hepatotoxicity (severe hepatitis): 0
[3]
  Hepatotoxicity (choleostasis): 2
[4]
  Hepatotoxicity (cytolytic): 1
[5]
  Hepatotoxicity (time to onset): 10 days - 2 weeks
[6]
  Hepatotoxicity (granulomatous hepatitis): 0
[7]
  Hepatotoxicity (moderate): 7
[8]
  Hepatotoxicity (acute): 0%
[9]
  Hepatotoxicity (chronic liver disease): 0
[10]
  Hepatotoxicity (acute): 5
[11]
  Hepatotoxicity (moderate): 25%
[12]
  Hepatotoxicity (successful reintroduction): yes
[13]
  Hepatotoxicity (association with vascular disease): 0
[14]
  Hepatotoxicity (cirrhosis): 0
[15]
  Hepatotoxicity (steatosis): 0
[16]
  Hepatotoxicity (benign tumour): 0

## Nc1cc(-c2ccncc2)c[nH]c1=O [INAMRINONE]
[1]
  Hepatotoxicity (malignant tumour): 0
[2]
  Hepatotoxicity (severe hepatitis): 0
[3]
  Hepatotoxicity (choleostasis): 2
[4]
  Hepatotoxicity (cytolytic): 2
[5]
  Hepatotoxicity (time to onset): 1 week - 3 weeks
[6]
  Hepatotoxicity (granulomatous hepatitis): 0
[7]
  Hepatotoxicity (moderate): 9
[8]
  Hepatotoxicity (acute): 0%
[9]
  Hepatotoxicity (chronic liver disease): 0
[10]
  Hepatotoxicity (acute): 6
[11]
  Hepatotoxicity (moderate): 33%
[12]
  Hepatotoxicity (successful reintroduction): yes
[13]
  Hepatotoxicity (association with vascular disease): 0
[14]
  Hepatotoxicity (cirrhosis): 0
[15]
  Hepatotoxicity (steatosis): 0
[16]
  Hepatotoxicity (benign tumour): 0
